Assay results as given in ChEMBL document CHEMBL1201862, “PubChem BioAssay data set” (2004).
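Grown in 96-well plates, cells were treated for 48 hours with each compound at five concentrations. Insufficient inhibition: endpoint recorded as highest concentration tested. GI50 is the concentration that inhibits growth by half.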 Calls of active or inactive are those of the source. Rule as the data show it: active = GI50 up to about 1.1 µM and inactive = higher.

What was measured:
Test in all cases: growth of human tumour cells (NCI), 48 h
HCT-116 = system: HCT-116
TK-10 = system: TK-10
A549 = system: A549
Hs-578T = system: Hs-578T
CCRF-CEM = system: CCRF-CEM
DU-145 = system: DU-145
BT-549 = system: BT-549
NCI-H522 = system: NCI-H522
MCF7 = system: MCF7
NCI-H460 = system: NCI-H460
RPMI-8226 = system: RPMI-8226
SNB-75 = system: SNB-75
IGROV-1 = system: IGROV-1
MDA-MB-231 = system: MDA-MB-231
OVCAR-3 = system: OVCAR-3
HOP-62 = system: HOP-62
KM12 = system: KM12
OVCAR-5 = system: OVCAR-5
Malme-3M = system: Malme-3M
SK-MEL-2 = system: SK-MEL-2

Measured: GI50

Cn1c(=O)c(C(=O)Nc2nc(C34CC5CC(CC(C5)C3)C4)cs2)c(O)c2ccccc21
inactive: HCT-116 > 100 µM | TK-10 25.1 µM | A549 79.8 µM | Hs-578T 23.8 µM | CCRF-CEM 41.2 µM | DU-145 > 100 µM | BT-549 75.2 µM | NCI-H522 55.3 µM | MCF7 > 100 µM | NCI-H460 > 100 µM | RPMI-8226 > 100 µM | SNB-75 56.1 µM | IGROV-1 77.3 µM | MDA-MB-231 70 µM | OVCAR-3 > 100 µM | HOP-62 10.7 µM | KM12 > 100 µM | OVCAR-5 > 100 µM | Malme-3M > 100 µM

CSc1ccsc1-c1sc(-c2cc(SC)c(-c3sc(-c4cc(SC)c(-c5sccc5SC)s4)cc3SC)s2)cc1SC
inactive: HCT-116 75.9 µM | TK-10 > 100 µM | A549 90.8 µM | Hs-578T > 100 µM | CCRF-CEM 4.26 µM | DU-145 96.8 µM | SK-MEL-2 > 100 µM | BT-549 64.3 µM | NCI-H522 18.3 µM | MCF7 57.1 µM | NCI-H460 > 100 µM | RPMI-8226 3.44 µM | IGROV-1 > 100 µM | MDA-MB-231 > 100 µM | OVCAR-3 49.8 µM | HOP-62 > 100 µM | KM12 65.2 µM | OVCAR-5 > 100 µM | Malme-3M 29.4 µM

CN(C)c1ccc(/C=N/CC2CCCN3CCCCC23)cc1 (stereo not drawn)
inactive: HCT-116 > 100 µM | TK-10 > 100 µM | A549 > 100 µM | Hs-578T 24.8 µM | DU-145 > 100 µM | BT-549 > 100 µM | NCI-H522 > 100 µM | MCF7 > 100 µM | NCI-H460 > 100 µM | SNB-75 > 100 µM | IGROV-1 > 100 µM | MDA-MB-231 > 100 µM | OVCAR-3 > 100 µM | HOP-62 > 100 µM | KM12 > 100 µM | OVCAR-5 > 100 µM | Malme-3M > 100 µM

O=c1[nH]n(CCc2ccccc2CCl)c2ccc([N+](=O)[O-])cc12
inactive: HCT-116 52.1 µM | TK-10 > 100 µM | A549 99.1 µM | Hs-578T 54.3 µM | CCRF-CEM 37 µM | DU-145 77.3 µM | SK-MEL-2 > 100 µM | BT-549 33.3 µM | NCI-H522 52.6 µM | MCF7 48.5 µM | NCI-H460 57 µM | RPMI-8226 > 100 µM | IGROV-1 83.9 µM | MDA-MB-231 76.2 µM | OVCAR-3 > 100 µM | HOP-62 > 100 µM | KM12 83.8 µM | OVCAR-5 > 100 µM | Malme-3M > 100 µM

N=C(N)N/N=C/c1cnn(C(=N)N)c1
inactive: HCT-116 > 100 µM | TK-10 > 100 µM | A549 > 100 µM | Hs-578T > 100 µM | CCRF-CEM > 100 µM | DU-145 > 100 µM | BT-549 > 100 µM | NCI-H522 > 100 µM | MCF7 > 100 µM | NCI-H460 > 100 µM | RPMI-8226 > 100 µM | SNB-75 95.3 µM | IGROV-1 > 100 µM | MDA-MB-231 > 100 µM | OVCAR-3 > 100 µM | HOP-62 > 100 µM | KM12 64.1 µM | OVCAR-5 > 100 µM | Malme-3M > 100 µM

O=S(=O)(c1ccccc1)c1cccc2c1NCCC2
inactive: HCT-116 42.5 µM | TK-10 64.9 µM | A549 33.3 µM | Hs-578T 52.1 µM | CCRF-CEM 46.8 µM | DU-145 59.4 µM | SK-MEL-2 > 10 µM | BT-549 20.8 µM | MCF7 40.8 µM | NCI-H460 43.4 µM | RPMI-8226 56.1 µM | SNB-75 26.1 µM | IGROV-1 52.5 µM | MDA-MB-231 39.6 µM | OVCAR-3 50.7 µM | HOP-62 > 100 µM | KM12 44.2 µM | OVCAR-5 > 100 µM | Malme-3M 29.1 µM

O=c1[nH]nc(Cc2ccccc2)n1/N=C/c1ccco1
inactive: HCT-116 > 100 µM | A549 > 100 µM | Hs-578T 10 µM | CCRF-CEM > 100 µM | DU-145 > 100 µM | SK-MEL-2 > 100 µM | BT-549 > 100 µM | MCF7 48.1 µM | NCI-H460 > 100 µM | RPMI-8226 > 100 µM | SNB-75 > 100 µM | MDA-MB-231 > 100 µM | OVCAR-3 > 100 µM | HOP-62 > 100 µM | KM12 77.1 µM | OVCAR-5 80 µM | Malme-3M > 100 µM

OCCCCn1cc(Cn2ncc3c(NCc4ccccc4)ncnc32)nn1
inactive: HCT-116 > 100 µM | TK-10 > 100 µM | A549 > 100 µM | Hs-578T > 100 µM | CCRF-CEM > 100 µM | DU-145 > 100 µM | SK-MEL-2 > 100 µM | BT-549 > 100 µM | NCI-H522 > 100 µM | MCF7 > 100 µM | NCI-H460 > 100 µM | RPMI-8226 > 100 µM | IGROV-1 > 100 µM | MDA-MB-231 > 100 µM | OVCAR-3 > 100 µM | HOP-62 > 100 µM | KM12 > 100 µM | OVCAR-5 > 100 µM | Malme-3M > 100 µM

O=C(NCc1ccccc1)c1c(O)nc2ccccc2c1O
inactive: HCT-116 > 100 µM | TK-10 > 100 µM | A549 > 100 µM | Hs-578T 40.7 µM | CCRF-CEM > 100 µM | DU-145 > 100 µM | BT-549 > 100 µM | NCI-H522 > 100 µM | MCF7 > 100 µM | NCI-H460 > 100 µM | RPMI-8226 > 100 µM | SNB-75 > 100 µM | IGROV-1 > 100 µM | MDA-MB-231 > 100 µM | OVCAR-3 > 100 µM | HOP-62 > 100 µM | KM12 > 100 µM | OVCAR-5 > 100 µM | Malme-3M > 100 µM

Cc1ccc(-c2c(C#N)c(N)[nH]c(=S)c2C#N)cc1
inactive: HCT-116 32.4 µM | TK-10 73.6 µM | A549 58.5 µM | Hs-578T 18.5 µM | DU-145 50.8 µM | SK-MEL-2 25.2 µM | BT-549 34.1 µM | NCI-H522 19.4 µM | MCF7 32 µM | NCI-H460 47.6 µM | RPMI-8226 17.7 µM | IGROV-1 43.3 µM | MDA-MB-231 34.8 µM | OVCAR-3 35.2 µM | HOP-62 55 µM | KM12 40.8 µM | OVCAR-5 > 100 µM | Malme-3M 26.4 µM

C[C@]12CC(c3ccccc3O1)C(C(=O)Nc1nc(C34CC5CC(CC(C5)C3)C4)cs1)C(=O)N2 (stereo partly drawn)
inactive: HCT-116 98.9 µM | A549 > 100 µM | Hs-578T > 100 µM | CCRF-CEM 89.1 µM | DU-145 > 100 µM | SK-MEL-2 > 100 µM | BT-549 > 100 µM | MCF7 > 100 µM | NCI-H460 > 100 µM | RPMI-8226 > 100 µM | SNB-75 > 100 µM | IGROV-1 75 µM | MDA-MB-231 > 100 µM | OVCAR-3 > 100 µM | HOP-62 > 100 µM | KM12 > 100 µM | OVCAR-5 > 100 µM | Malme-3M 34.7 µM
